Measurements: ChEMBL document CHEMBL3639375, “Œ=-lactamase inhibitors” (2013)

Assays:
Beta-lactamase [1] = molecular target: Beta-lactamase (Klebsiella pneumoniae, UniProt Q93LQ9); assay: (§1) Spectrophotometric Assay: Enzyme activities were measured in the presence of the test inhibitor in spectrophotometric assay.
Beta-lactamase [2] = molecular target: Beta-lactamase (Pseudomonas aeruginosa, UniProt Q8RL90); assay: as §1
Beta-lactamase (Pseudomonas aeruginosa, UniProt Q8RL90), sequence (Q8RL90 whole entry): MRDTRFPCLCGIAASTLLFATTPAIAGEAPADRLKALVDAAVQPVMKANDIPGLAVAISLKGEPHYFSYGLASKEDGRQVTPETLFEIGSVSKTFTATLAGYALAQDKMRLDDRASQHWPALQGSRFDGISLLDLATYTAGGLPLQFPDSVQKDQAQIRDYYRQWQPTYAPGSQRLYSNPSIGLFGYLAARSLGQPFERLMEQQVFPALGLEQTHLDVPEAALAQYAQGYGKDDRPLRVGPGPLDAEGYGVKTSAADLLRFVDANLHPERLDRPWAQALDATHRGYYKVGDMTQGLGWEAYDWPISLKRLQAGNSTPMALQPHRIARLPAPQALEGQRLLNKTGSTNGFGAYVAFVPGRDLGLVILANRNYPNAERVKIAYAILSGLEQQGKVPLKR

Beta-lactamase (Klebsiella pneumoniae, UniProt Q93LQ9), sequence (Q93LQ9 whole entry): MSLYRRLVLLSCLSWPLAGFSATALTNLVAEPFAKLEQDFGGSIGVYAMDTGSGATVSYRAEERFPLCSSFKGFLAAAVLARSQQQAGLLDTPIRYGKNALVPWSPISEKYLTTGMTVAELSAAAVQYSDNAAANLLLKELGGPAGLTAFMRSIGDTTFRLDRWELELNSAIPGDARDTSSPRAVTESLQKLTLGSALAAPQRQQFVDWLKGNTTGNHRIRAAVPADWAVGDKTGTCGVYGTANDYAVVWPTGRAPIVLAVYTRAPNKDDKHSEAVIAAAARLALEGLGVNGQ

O=C(Nc1ccc2c(c1)CCNC2)[C@@H]1CCC2CN1C(=O)N2OS(=O)(=O)O (stereo partly drawn)
IC50 (Beta-lactamase [1]): 19 nM

O=C(NC1CCCNCC1)[C@@H]1CCC2CN1C(=O)N2OS(=O)(=O)O (stereo partly drawn)
IC50 (Beta-lactamase [2]): 69 nM

O=C(Nc1ccncc1)[C@@H]1CCC2CN1C(=O)N2OS(=O)(=O)O (stereo partly drawn)
IC50 (Beta-lactamase [2]): 6 nM
